# Experimental data as given in patent publication US4496568A, “Antiinflammatory thieno [2,3-c]pyridine derivatives” (PACOR, priority 1977, dated 1985).
# What was measured:
# Format in all cases: in vivo
# [1] = system: ovalbumin-induced systemic edema; test: Ovalbumin-induced systemic edema (anti-inflammatory activity); details: rats, 100 mg/kg orally 1 hour before and simultaneously with ovalbumin, vs reference group
# Procedure: (§1) The pharmacological investigation concerned the anti-inflammatory activity of the compounds of this invention. This activity was investigated according to 2 methods:
# (b) Method of the ovalbumin-induced systemic edema
# A simultaneous intraperitoneal injection of 1 ml ovalbumin and 0,5 ml of 1% aqueous Evans blue solution is effected in rats. On the other hand, the animals of the treated group are orally administered 100 mg/kg body weight of the test derivative, 1 hour prior to ovalbumin administration and simultaneously therewith. The intensity of the phenomenon thus induced is rated according to a scale from 1 to 5, according to the progress of the inflammatory syndrome. Thus are determined, as a function of time, the mean intensity of the edema and the percent decrease of the edema reaction with respect to the reference group.
# [2] = system: localized carrageenin-induced edema; test: Localized carrageenin-induced edema (anti-inflammatory activity); details: rats, 100 mg/kg orally 1 hour before, at, and 1 and 2.5 hours after carrageenin, vs reference group
# Procedure: as §1
# (a) Method of localized carrageenin-induced edema
# An 1% (0.1 ml) carrageenin solution is injected in the metatarsal flexor muscles of the right hind limb of rats at time 0. The animals of the treated group are additionally administered orally 100 mg/kg body weight of the test derivative, respectively 1 hour prior to injection of the phlogogenic agent, simultaneously with said injection, and then 1 and 2.5 hours thereafter. The determinations effected with a ROCH micrometer at times 0, 1 hour 2 hrs, 3 hrs and 5 hrs after carrageenin administration provide a measure, as a function of time, of the percent anti-inflammatoryactivity, with respect to the reference group.
# [3] = system: mice; test: Acute intravenous toxicity LD50
Compound,Percent anti-inflammatory activity after 2 hrs [1] [%],Percent anti-inflammatory activity after 3 hrs [1] [%],Percent anti-inflammatory activity after 1 hr [2] [%],Percent anti-inflammatory activity after 2 hrs [2] [%],Percent anti-inflammatory activity after 3 hrs [2] [%],Percent anti-inflammatory activity after 5 hrs [2] [%],LD50 [3] [mg]
"Oc1cncc2ccsc12 [Derivative No. 1, 7-hydroxy-thieno[3,2-c]pyridine]",44,50,43,46,48,49,131
"Oc1cncc2sccc12 [Derivative No. 2, 4-hydroxy-thieno[2,3-c]pyridine]",49,58,40,45,49,49,
"Cc1ncc(O)c2ccsc12 [Derivative No. 3, 4-hydroxy-7-methyl-thieno[2,3-c]pyridine]",53,61,42,48,52,51,
"Cc1cc2c(O)cncc2s1 [Derivative No. 4, 4-hydroxy-2-methyl-thieno[2,3-c]pyridine]",48,60,45,49,50,52,
